Data from ChEMBL document CHEMBL1201862, “PubChem BioAssay data set” (2004).
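48-hour exposure; five concentrations; linearly interpolated endpoints. At the GI50, growth is halved.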 Activity calls are given as the source filed them. No stated cut-off is given here; in the data, active = GI50 up to about 1.1 µM and inactive = higher.

Legend:
Assay in all cases: NCI tumour cell line growth inhibition, 48 h
HT-29 = test system: HT-29
M14 = test system: M14
MOLT-4 = test system: MOLT-4
ACHN = test system: ACHN
OVCAR-4 = test system: OVCAR-4
UACC-257 = test system: UACC-257
A549 = test system: A549
CCRF-CEM = test system: CCRF-CEM
SR = test system: SR
COLO 205 = test system: COLO 205
IGROV-1 = test system: IGROV-1
UACC-62 = test system: UACC-62
SF-539 = test system: SF-539
KM12 = test system: KM12
HCT-116 = test system: HCT-116
K562 = test system: K562

Measured: GI50

COC1=C(N)C(=O)c2nc(C)ccc2C1=O
inactive: HT-29 1.98 µM | M14 1.88 µM | MOLT-4 5.85 µM | ACHN 1.77 µM | OVCAR-4 1.89 µM | UACC-257 1.47 µM | A549 2.18 µM | CCRF-CEM 17.2 µM | SR 2.94 µM | COLO 205 1.79 µM | IGROV-1 9.98 µM | UACC-62 1.75 µM | SF-539 1.91 µM | KM12 1.87 µM | HCT-116 1.94 µM

CC1=C2C=CC(=O)C[C@@]2(C)CCC1
inactive: HT-29 > 100 µM | K562 > 100 µM | M14 > 100 µM | MOLT-4 > 100 µM | ACHN > 100 µM | OVCAR-4 > 100 µM | UACC-257 > 100 µM | A549 > 100 µM | CCRF-CEM > 100 µM | COLO 205 > 100 µM | IGROV-1 > 100 µM | UACC-62 > 100 µM | SF-539 > 100 µM | KM12 > 100 µM | HCT-116 > 100 µM

CCc1cccc(C)c1NC(=O)CC1C(=O)Nc2ccccc2S1(=O)=O (centres undefined)
inactive: HT-29 19.7 µM | K562 2.92 µM | M14 18.9 µM | MOLT-4 14.1 µM | ACHN 18.6 µM | OVCAR-4 14.9 µM | UACC-257 18.9 µM | A549 18.6 µM | CCRF-CEM 13.7 µM | SR 5.65 µM | IGROV-1 13.4 µM | UACC-62 15.8 µM | SF-539 11 µM | HCT-116 15.8 µM

CC(=O)OC1(C#N)CC2OC1C1C2N=NN1C(=O)OC(C)(C)C (centres undefined)
inactive: HT-29 39.4 µM | K562 33.5 µM | M14 21 µM | MOLT-4 50.1 µM | ACHN > 100 µM | OVCAR-4 65.6 µM | UACC-257 35.4 µM | A549 34.4 µM | CCRF-CEM 15.2 µM | SR 32.8 µM | COLO 205 > 100 µM | IGROV-1 35 µM | UACC-62 19.5 µM | SF-539 23.2 µM | HCT-116 12.5 µM

COC(=O)CCC(NC(=S)N/N=C(\C)c1cccs1)C(=O)OC (centres undefined)
inactive: HT-29 > 100 µM | K562 > 100 µM | M14 > 100 µM | ACHN > 100 µM | OVCAR-4 > 100 µM | UACC-257 > 100 µM | A549 > 100 µM | COLO 205 > 100 µM | IGROV-1 > 100 µM | UACC-62 > 100 µM | SF-539 > 100 µM | KM12 > 100 µM | HCT-116 > 100 µM

Cc1nc2ccccc2c(=O)n1/N=C(\N=N\c1ccccc1Cl)c1ccccc1Cl
inactive: HT-29 53.6 µM | K562 37.3 µM | M14 > 100 µM | MOLT-4 22.1 µM | ACHN 50.5 µM | A549 > 100 µM | CCRF-CEM 77.3 µM | COLO 205 > 100 µM | IGROV-1 42.1 µM | UACC-62 58.9 µM | SF-539 27.2 µM | HCT-116 36.4 µM

CCCN1CN(C(C(=O)N[C@@H]2C(=O)N3C(C(=O)O)=C(C)CSC23)c2ccccc2)CSC1=S (some centres undefined)
inactive: HT-29 > 100 µM | K562 47.6 µM | M14 > 100 µM | MOLT-4 > 100 µM | ACHN > 100 µM | OVCAR-4 > 100 µM | UACC-257 > 100 µM | A549 > 100 µM | CCRF-CEM 95.1 µM | COLO 205 47.1 µM | IGROV-1 > 100 µM | UACC-62 > 100 µM | SF-539 > 100 µM | KM12 > 100 µM | HCT-116 > 100 µM

CC(C)(O)[C@H](CCO)O[Si](c1ccccc1)(c1ccccc1)C(C)(C)C
inactive: HT-29 11.1 µM | K562 7.74 µM | M14 12.2 µM | MOLT-4 4.25 µM | ACHN 5.94 µM | UACC-257 15.5 µM | A549 7.35 µM | CCRF-CEM 10.6 µM | SR 4.93 µM | COLO 205 14.4 µM | IGROV-1 12.2 µM | UACC-62 11.3 µM | SF-539 14.3 µM | KM12 11.6 µM | HCT-116 4.9 µM

O=c1c2ccccc2nc(-c2ccccc2Cl)n1NCC1(O)OCC(O)C(O)C1O (centres undefined)
inactive: HT-29 > 100 µM | K562 > 100 µM | M14 > 100 µM | MOLT-4 > 100 µM | ACHN > 100 µM | OVCAR-4 > 100 µM | UACC-257 > 100 µM | A549 > 100 µM | CCRF-CEM > 100 µM | SR > 100 µM | COLO 205 > 100 µM | UACC-62 > 100 µM | SF-539 > 100 µM | KM12 > 100 µM | HCT-116 > 100 µM

COc1ccc(Nc2nc(C#N)c(N)s2)cc1
inactive: HT-29 46.8 µM | K562 24.5 µM | M14 81.5 µM | MOLT-4 > 10 µM | ACHN 15.7 µM | OVCAR-4 83.2 µM | UACC-257 17.1 µM | A549 27.2 µM | COLO 205 35.9 µM | IGROV-1 76.6 µM | UACC-62 23.1 µM | SF-539 36.2 µM | KM12 29.9 µM | HCT-116 33 µM

O=C(O)NC(c1ccccc1)C(NC(=O)c1ccccc1)c1ccccc1 (centres undefined)
inactive: HT-29 > 100 µM | K562 > 100 µM | ACHN > 100 µM | OVCAR-4 > 100 µM | UACC-257 > 100 µM | A549 > 100 µM | SR > 100 µM | COLO 205 > 100 µM | IGROV-1 > 100 µM | UACC-62 > 100 µM | SF-539 > 100 µM | KM12 > 100 µM | HCT-116 > 100 µM

CC1=NNC(=O)C2CCC(=O)N12 (centres undefined)
inactive: K562 > 100 µM | M14 > 100 µM | MOLT-4 > 100 µM | ACHN > 100 µM | OVCAR-4 > 100 µM | UACC-257 > 100 µM | A549 > 100 µM | CCRF-CEM > 100 µM | SR > 100 µM | COLO 205 > 100 µM | IGROV-1 > 100 µM | SF-539 > 100 µM | KM12 > 100 µM | HCT-116 > 100 µM

OC12c3ccccc3C1CCCCCCCCCC21OCCO1 (centres undefined)
inactive: HT-29 > 100 µM | K562 > 100 µM | M14 > 100 µM | MOLT-4 > 100 µM | ACHN > 100 µM | OVCAR-4 > 100 µM | UACC-257 > 100 µM | A549 > 100 µM | CCRF-CEM > 100 µM | COLO 205 > 100 µM | IGROV-1 > 100 µM | UACC-62 > 100 µM | SF-539 > 100 µM | KM12 > 100 µM | HCT-116 > 100 µM

CCOC(=O)C(C(=O)OCC)P(=S)(S)c1ccccc1 (centres undefined)
inactive: HT-29 > 100 µM | K562 > 100 µM | MOLT-4 > 100 µM | ACHN > 100 µM | OVCAR-4 > 100 µM | UACC-257 > 100 µM | A549 > 100 µM | CCRF-CEM > 100 µM | SR > 100 µM | COLO 205 > 100 µM | IGROV-1 > 100 µM | UACC-62 > 100 µM | SF-539 > 100 µM | KM12 > 100 µM
